This note sets out measurements from patent US6268391A, “Benzylidene-1,3-dihydro-indol-2-one derivatives a receptor tyrosine kinase inhibitors, particularly of Raf kinases” (Glaxo Wellcome Inc., priority 1997, dated 2001).

Test [1] relates to HT29 (human colon carcinoma cell line). The test can be described thus: Cell Based Efficacy (MTT Assay), HT29. Particulars: HT-29, 72 hours with compound, 50% inhibitory concentration. On the procedure: (§1) The potency of compounds of the invention are tested for their ability to inhibit cell proliferation and cell viability. The metabolic conversion of 3-(4,5-dimethylthiazol-2-yl)-2,5-diphenyltetrazolium bromide (MTT, Sigma #M2128) to a reduced form is a commonly used measure of cellular viability. Following is the procedure:
(§2) Cells are maintained in 75 cm^2 tissue culture flasks until ready for use. The cells are grown and plated for the assay in Dulbecco's modified Eagle's media containing 10% fetal bovine serum. For example, the following cell lines can be used: a) human foreskin fibroblasts (HFF), b) HT29 (human colon carcinoma cell line), c) MDA-MB-468 (human breast carcinoma cell line), d) RKO (human colon adenocarcinoma cell line), e) SW620 (human colon carcinoma cell line), f) A549 (human lung carcinoma cell line), and g) MIA PACA (human pancreatic carcinoma cell line). Cells are maintained at 37° C. in 10% CO2, 90% humidified air. Cells are plated in 96-well tissue culture plates at the densities listed below. 100 μL of cell suspension is added to each well of the 96-well plate except the top row of the plate which contains no cells and serves as a reference for the spectrophotometer.
(§3) Cells are incubated overnight in Dulbecco's modified Eagle's media containing 10% fetal bovine serum at 37° C. in 10% CO2, 90% humidified air prior to dosing. Cells are dosed in 10 sequential 3-fold dilutions starting at 30 uM depending upon the solubility of the compound. Compounds with solubilities of less than 30 uM are dosed at the highest soluble concentration. Stock solutions of compounds are made in 100% dimethyl sulfoxide (DMSO). Stock solutions are diluted in Dulbecco's modified Eagle's media containing 100 ug/mL gentamicin and 0.3 to 0.6% DMSO at the twice the highest concentration to be placed on the cells. If compounds have been dissolved in DMSO the final concentration of DMSO on the cells is kept below 0.3%. 3-fold serial dilutions are performed on each compound to prepare 10 concentrations of the compound for dosing. 100 μL of diluted compound is added to the 100 μL of media currently on the dish. For each concentration of compound, 2-4 replicate wells are prepared.
(§4) Cells are returned to incubator and allowed to proliferate in the presence of compound for 72 hours before addition of MTT. MTT is prepared in phosphate buffered saline (Irvine Scientific #9240) at a concentration of 2mg/mL. 50 μL per well of MTT solution is added to the 200 μL of media to yield a final concentration of 0.4 mg/mL and plates are returned to the incubator for 4 hours. After 4 hours incubation the media, compound and MTT mixture is aspirated from the plates and 100 μL of 100% DMSO is added to each well in addition to 25 μL of Sorenson's Buffer (0.1M glycine, 0.1M NaCl, pH 10.5). Quantitation of metabolic reduction of MTT in each plate is performed by reading optical density at 570 nm wavelength on a Molecular Devices UVmax microplate reader. Growth inhibition curves and 50% inhibitory concentrations are determined using Microsoft Excel.
(§5) Table 4 illustrates the inhibitory activity of compounds of the present invention against a representative kinase (raf) and the cytotoxicity of compounds of the present invention against a broad range of human tumor cell lines.

Another test relates to PC-3 (prostate). As to the kind of experiment: Cell Based Efficacy (MTT Assay), PC-3. Particulars: Homo sapiens; 72 hours with compound; 50% inhibitory concentration. On the procedure:
as §1, §2, §3, §4, §5

Test [2] deals with MDA-MB-468 (human breast carcinoma cell line). As to the kind of experiment: Cell Based Efficacy (MTT Assay), MDA-MB-468. Particulars: 72 hours with compound, 50% inhibitory concentration. On the procedure:
as §1
as §2, with “spectrophotometer. […]” for “spectrophotometer.”
as §3, §4, §5

A further test has as its target T1, Human cRaf1 (Homo sapiens, UniProt P04049).
T1 construct: poly-histidine (C); made in house
As to the kind of experiment: Raf kinase assay (cRaf1 assay / Raf/MEK cascade assay). Type of test: biochemical.

The test system of test [3] is MIA PACA (human pancreatic carcinoma cell line). As to the kind of experiment: Cell Based Efficacy (MTT Assay), MIA PACA. The following applies: MIA PaCa-2, 72 hours with compound, 50% inhibitory concentration. On the procedure:
as §1, §2
MIA PACA 3000 cells/well
as §3, §4, §5

For test [4], the system named is SW620 (human colon carcinoma cell line). The test can be described thus: Cell Based Efficacy (MTT Assay), SW620. Particulars: SW-620, 72 hours with compound, 50% inhibitory concentration. On the procedure: as §1
as §2, with “spectrophotometer. […]” for “spectrophotometer.”
as §3, §4, §5

[5] abbreviates: Table 3, read-out: Raf Kinase activity.

pIC50: −log10 of the molar value. Read-outs that look alike come from different tables or passages of the source.

T1 sequence (P04049 whole entry): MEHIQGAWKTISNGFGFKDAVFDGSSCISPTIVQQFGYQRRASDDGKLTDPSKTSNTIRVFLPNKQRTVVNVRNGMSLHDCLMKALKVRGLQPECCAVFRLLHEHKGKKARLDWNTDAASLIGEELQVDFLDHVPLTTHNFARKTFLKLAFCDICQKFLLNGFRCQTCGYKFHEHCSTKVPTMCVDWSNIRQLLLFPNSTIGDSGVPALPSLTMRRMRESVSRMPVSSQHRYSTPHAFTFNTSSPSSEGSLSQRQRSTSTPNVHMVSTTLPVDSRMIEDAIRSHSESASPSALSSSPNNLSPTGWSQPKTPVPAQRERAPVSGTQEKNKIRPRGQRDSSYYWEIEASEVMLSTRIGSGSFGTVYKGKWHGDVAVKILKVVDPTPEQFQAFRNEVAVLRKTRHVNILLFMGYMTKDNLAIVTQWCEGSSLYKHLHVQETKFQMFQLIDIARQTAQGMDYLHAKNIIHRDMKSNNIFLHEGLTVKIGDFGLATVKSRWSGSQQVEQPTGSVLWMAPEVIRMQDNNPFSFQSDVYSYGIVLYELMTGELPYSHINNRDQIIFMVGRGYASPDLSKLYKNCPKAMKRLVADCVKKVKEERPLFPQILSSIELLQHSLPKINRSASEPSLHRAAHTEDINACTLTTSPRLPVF

As for `N#Cc1ccc2c(c1)C(=Cc1cc(Br)c(O)c(Br)c1)C(=O)N2` [Example 1, 3-(3,5-Dibromo-4-hydroxy-benzylidine)-2-oxo-2,3-dihydro-1H-indole-5-carbonitrile], the pIC50 in test [1] is 4.30 to 5.30; with PC-3 (prostate), 4.30 to 5.30; in test [2], 4.30 to 5.30; on Human cRaf1 (setting [5]) it was more than 6.00; on Human cRaf1 (Table 4, read-out: Raf), more than 6.30; in test [3] it was 4.30 to 5.30. The pIC50 in test [4] is 4.30 to 5.30.
As to `CCOc1cc(C=C2C(=O)Nc3ccc(C(=O)c4ccccc4)cc32)cc(Br)c1O` [Example 8, 5-Benzoyl-3-(3-bromo-5-ethoxy-4-hydroxy-benzylidene)-1,3-dihydro-indol-2-one], the pIC50 was 4.30 to 5.30 in test [1]; 4.30 to 5.30 in the test with PC-3 (prostate); 4.30 to 5.30 in test [2]; more than 6.00 at Human cRaf1 (setting [5]); more than 6.30 at Human cRaf1 (Table 4, read-out: Raf); 4.30 to 5.30 in test [3]. For the same molecule, the pIC50 in test [4] was 4.30 to 5.30.
On to `NCc1ccc2c(c1)C(=Cc1cc(Br)c(O)c(Br)c1)C(=O)N2` [Example 25, 5-Aminomethyl-3-(3,5-dibromo-4-hydroxy-benzylidene)-1,3-dihydro-indol-2-one], for which the pIC50 in test [1] is 4.30 to 5.30; in the test with PC-3 (prostate), 4.30 to 5.30; in test [2], 4.30 to 5.30; on Human cRaf1 (setting [5]), 5.00 to 6.00; on Human cRaf1 (Table 4, read-out: Raf) it was 5.30 to 6.30; in test [3] it was 4.30 to 5.30. In test [4], the pIC50 is 4.30 to 5.30.
On to `O=C1Nc2ccc3ncccc3c2C1=Cc1cc(Br)c(O)c(Br)c1` [Example 119, 1-(3,5-Dibromo-4-hydroxy-benzylidene)-1,3-dihydro-pyrrolo[3,2-f]quinolin-2-one], for which the pIC50 was 5.30 to 6.30 in test [1]; 5.30 to 6.30 in the test on PC-3 (prostate); 5.30 to 6.30 in test [2]; more than 6.00 at Human cRaf1 (setting [5]); more than 6.30 at Human cRaf1 (Table 4, read-out: Raf); 5.30 to 6.30 in test [3]. For the same molecule, the pIC50 in test [4] was 5.30 to 6.30.
As for `O=C1Nc2ccc3ncsc3c2C1=Cc1cc(Br)c(O)c(Br)c1` [Example 121, 8-(3,5-Dibromo-4-hydroxy-benzylidine)-6,8-dihydro-1-thia-3,6-diaza-as-indacen-7-one], the pIC50 is 5.30 to 6.30 in test [1]; 5.30 to 6.30 in test [2]; more than 6.00 at Human cRaf1 (setting [5]); more than 6.30 at Human cRaf1 (Table 4, read-out: Raf); 4.30 to 5.30 in test [3]; 5.30 to 6.30 in test [4].
On to `Cc1nc(-c2ccc3c(c2)C(=Cc2cc([N+](=O)[O-])c(O)c([N+](=O)[O-])c2)C(=O)N3)cs1` [Example 130, 3-(3,5-Dinitro-4-hydroxy-benzylidene)-5-(2-methyl-thiazol-4-yl)-1,3-dihydro-indol-2-one], for which the pIC50 was less than 4.30 in test [1]; less than 4.30 in the test with PC-3 (prostate); 4.30 to 5.30 in test [2]; more than 6.00 on Human cRaf1 (setting [5]); more than 6.30 on Human cRaf1 (Table 4, read-out: Raf); 4.30 to 5.30 in test [3]. For the same molecule, in test [4], the pIC50 is 4.30 to 5.30.
On to `O=C1Nc2cc(Br)ccc2C1=Cc1cc(Cl)c(O)c(Cl)c1` [Example 133, 6-Bromo-3-(3,5-dichloro-4-hydroxy-benzylidene)-1,3-dihydro-indol-2-one], for which the pIC50 in test [1] is 5.30 to 6.30; in the test on PC-3 (prostate), 4.30 to 5.30; in test [2] it was 5.30 to 6.30; at Human cRaf1 (setting [5]) it was more than 6.00; on Human cRaf1 (Table 4, read-out: Raf), more than 6.30; in test [3] it was 4.30 to 5.30. Also, the pIC50 in test [4] is 4.30 to 5.30.
Turning to `Cn1nnc(-c2ccc3c(c2)C(=Cc2cc(Br)c(O)c(Br)c2)C(=O)N3)n1` [Example 143, 3-(3,5-Dibromo-4-hydroxy-benzylidene)-5-(2-methyl-2H-tetrazol-5-yl)-1,3-dihydro-indol-2-one], the pIC50 in test [1] was 5.30 to 6.30; in test [2], 5.30 to 6.30; on Human cRaf1 (setting [5]), more than 6.00; at Human cRaf1 (Table 4, read-out: Raf), more than 6.30; in test [4], 5.30 to 6.30.
